The values that follow come from US8734796B2, “Carrier immunoglobulins” (Amgen Inc., priority 2009, dated 2014).

Data set [1] has as its system thapsigargin-induced IL-2 secretion from T cells in human whole blood. Kind of data set: Human whole blood ex vivo assay, IL-2 secretion. The conditions noted are these: for IC50: 50% human whole blood, thapsigargin stimulus, 48 hours, read-out: WB (IL-2) IC50. The data set is classed as cell-based.
Data set [2] deals with thapsigargin-induced IFN-g secretion from T cells in human whole blood. Kind of data set: Human whole blood ex vivo assay, IFN-g secretion. The data set is classed as cell-based. The conditions noted are these: 50% human whole blood, thapsigargin stimulus, 48 hours; read-out: WB (IFNg) IC50.
Another data set addresses cloned hKv1.5 (Homo sapiens, UniProt P22460). Description: FASTPatch PatchXpress counterscreen, hKv1.5. The data set is classed as cell-based. The conditions noted are these: positive control, 2 mM.
The conditions of data set [3]: reported by C. Beeton et al., PNAS 98:13942 (2001); cited from earlier work.
In the next data set the target is T1, cloned hKv4.3 (Homo sapiens, UniProt Q9UK17).
T1 sequence (Q9UK17 1-655): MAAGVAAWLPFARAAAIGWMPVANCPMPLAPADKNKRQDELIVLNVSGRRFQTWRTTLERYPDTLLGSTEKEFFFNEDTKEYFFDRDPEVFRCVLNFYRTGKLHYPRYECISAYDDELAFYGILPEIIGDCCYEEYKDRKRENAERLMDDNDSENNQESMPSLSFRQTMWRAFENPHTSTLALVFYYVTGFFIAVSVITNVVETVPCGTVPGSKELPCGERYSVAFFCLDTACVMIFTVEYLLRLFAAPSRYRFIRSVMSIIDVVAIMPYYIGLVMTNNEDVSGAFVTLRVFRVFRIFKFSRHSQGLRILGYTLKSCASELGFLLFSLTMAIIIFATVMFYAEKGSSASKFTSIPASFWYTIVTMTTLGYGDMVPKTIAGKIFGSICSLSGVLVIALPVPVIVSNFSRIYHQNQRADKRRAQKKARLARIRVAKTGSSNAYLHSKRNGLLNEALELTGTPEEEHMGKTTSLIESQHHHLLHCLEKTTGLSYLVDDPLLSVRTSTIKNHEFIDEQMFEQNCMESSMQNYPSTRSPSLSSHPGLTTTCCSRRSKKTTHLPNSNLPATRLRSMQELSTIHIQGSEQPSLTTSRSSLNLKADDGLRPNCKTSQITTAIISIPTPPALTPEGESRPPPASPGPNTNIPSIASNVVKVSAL
Kind of data set: FASTPatch PatchXpress counterscreen, hKv4.3. The data set is classed as cell-based. The settings on record: positive control, 0.1 mM.

Another data set addresses human Kv1.3 (Homo sapiens, UniProt P22001). Kind of data set: Whole cell patch clamp electrophysiology, Kv1.3. In general terms: In patch-clamp work, channel activity is measured electrically.
The next data set deals with T2, DNP(31)-BSA (Bos taurus, UniProt P02769).
T2 construct: purchased Biosearch Technologies, Inc. (Novato, Calif.)
Description: BIAcore binding assay, DNP(31)-BSA. The settings on record: apparent. On the procedure:
Materials. Purified anti-DNP antibodies from either hybridoma (3A1, 3C2, 3A4 and 3B1) or recombinant CHO (3A4-F-G2 and 3B1-G2) expression were tested. Anti-human IgG, Fcγ-specific antibody was from Jackson ImmunoResearch Laboratories, Inc. (West Grove, Pa.). DNP-BSA (2,4-dinitrophenol conjugated to bovine serum albumin) was from Biosearch Technologies, Inc. (Novato, Calif.). BIACore 2000, research grade sensor chip CM5, surfactant P-20 (polyoxyethylenesorbitan), HBS-EP (10 mM HEPES, 0.15M NaCl, 3.4 mM EDTA, 0.005% P-20, pH 7.4), amine coupling reagents, 10 mM acetate pH 4.0 and 10 mM glycine, pH 1.5 were from BIACore, Inc. (Piscataway, N.J.). Phosphate-buffered saline (PBS, 1×, no calcium chloride, no magnesium chloride) was from Invitrogen (Carlsbad, Calif.). Bovine serum albumin (BSA, fraction V, IgG free) was from Sigma (St. Louis, Mo.).
Methods. BIAcore® analyses were carried out as follows. Immobilization of anti-human IgG, Fcγ-specific antibody to the CM5 sensor chip surface was performed according to manufacturer's instructions, using a continuous flow of 10 mM HEPES, 0.15M NaCl, 3.4 mM EDTA, 0.005% P-20, pH 7.4 (HBS-EP buffer). Briefly, carboxyl groups on the sensor chip surfaces were activated by injecting 60 μL of a mixture containing 0.2 M 1-ethyl-3-[3-dimethylaminopropyl]carbodiimide hydrochloride (EDC) and 0.05 M N-hydroxysuccinimide (NHS). Specific surfaces were obtained by injecting 180 μL of anti-human IgG, Fcγ-specific antibody diluted in 10 mM acetate buffer (for assay of aKLH antibodies: pH 4.5 at a concentration of 30 μg/mL; for assay of aDNP antibodies: pH 4.0 at a concentration of 60 μg/mL). Excess reactive groups on the surfaces were deactivated by injecting 60 μL of 1 M ethanolamine. Final immobilized levels were about 9,000 (for assay of aKLH antibodies) or about 10,000 (for assay of aDNP antibodies) resonance units (RU). A blank, mock-coupled reference surface was also prepared on the sensor chip. Antibodies and antigen were diluted in sample buffer consisting of PBS+0.005% P-20+0.1 mg/mL BSA. […]

No end group written: not given here.

T2 sequence (P02769 25-607): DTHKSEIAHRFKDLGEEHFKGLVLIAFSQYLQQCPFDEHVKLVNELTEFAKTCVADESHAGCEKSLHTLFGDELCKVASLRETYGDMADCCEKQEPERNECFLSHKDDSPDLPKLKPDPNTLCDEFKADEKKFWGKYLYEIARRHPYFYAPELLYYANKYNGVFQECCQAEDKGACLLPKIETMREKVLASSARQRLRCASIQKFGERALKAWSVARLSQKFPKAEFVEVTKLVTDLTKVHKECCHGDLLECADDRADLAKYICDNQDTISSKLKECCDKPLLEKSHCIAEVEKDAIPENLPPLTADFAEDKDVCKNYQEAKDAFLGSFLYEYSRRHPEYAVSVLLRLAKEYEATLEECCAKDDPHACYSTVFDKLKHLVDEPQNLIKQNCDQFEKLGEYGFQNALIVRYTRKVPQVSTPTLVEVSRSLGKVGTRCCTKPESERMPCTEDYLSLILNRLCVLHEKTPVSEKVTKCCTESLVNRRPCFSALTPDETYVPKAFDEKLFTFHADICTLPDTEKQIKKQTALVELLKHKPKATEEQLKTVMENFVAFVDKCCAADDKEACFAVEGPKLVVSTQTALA
human Kv1.3, sequence (P22001 whole entry): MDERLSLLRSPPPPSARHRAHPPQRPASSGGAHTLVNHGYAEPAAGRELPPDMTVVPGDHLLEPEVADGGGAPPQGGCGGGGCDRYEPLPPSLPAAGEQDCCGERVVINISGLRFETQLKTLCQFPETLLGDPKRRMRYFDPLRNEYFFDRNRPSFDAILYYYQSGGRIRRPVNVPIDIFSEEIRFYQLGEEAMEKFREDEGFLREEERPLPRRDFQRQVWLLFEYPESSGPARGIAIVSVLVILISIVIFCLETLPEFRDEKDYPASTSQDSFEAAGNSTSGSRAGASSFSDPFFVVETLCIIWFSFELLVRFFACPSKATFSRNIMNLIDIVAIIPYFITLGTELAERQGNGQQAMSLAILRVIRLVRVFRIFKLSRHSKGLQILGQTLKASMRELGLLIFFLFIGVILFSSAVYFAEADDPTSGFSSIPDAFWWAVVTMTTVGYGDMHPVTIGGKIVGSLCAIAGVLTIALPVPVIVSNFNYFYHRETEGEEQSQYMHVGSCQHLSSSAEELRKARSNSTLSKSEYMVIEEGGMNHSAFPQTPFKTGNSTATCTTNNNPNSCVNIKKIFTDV
cloned hKv1.5, sequence (P22460 whole entry): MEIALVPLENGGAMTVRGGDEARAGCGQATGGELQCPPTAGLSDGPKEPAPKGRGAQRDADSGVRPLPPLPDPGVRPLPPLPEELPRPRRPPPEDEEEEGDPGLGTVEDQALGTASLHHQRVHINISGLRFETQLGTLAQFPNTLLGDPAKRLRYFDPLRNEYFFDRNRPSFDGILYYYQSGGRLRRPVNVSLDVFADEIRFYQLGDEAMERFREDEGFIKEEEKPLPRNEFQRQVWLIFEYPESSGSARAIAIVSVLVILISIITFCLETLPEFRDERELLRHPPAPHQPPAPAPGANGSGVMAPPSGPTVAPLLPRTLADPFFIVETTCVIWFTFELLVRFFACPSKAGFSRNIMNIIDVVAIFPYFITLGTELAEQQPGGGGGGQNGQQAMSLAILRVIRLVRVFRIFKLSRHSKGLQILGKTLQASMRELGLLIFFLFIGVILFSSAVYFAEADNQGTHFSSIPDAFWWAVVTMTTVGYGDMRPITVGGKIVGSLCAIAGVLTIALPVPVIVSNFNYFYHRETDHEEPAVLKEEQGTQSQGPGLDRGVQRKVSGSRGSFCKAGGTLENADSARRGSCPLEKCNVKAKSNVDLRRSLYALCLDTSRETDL

As to “20 kDa-PEG-ShK: SEQ ID NO:363; ShK PEGylated at its N-terminus with 20 kDa PEG [reference compound]”, the half-inhibitory concentration (IC50) in data set [1] stood at 0.38 nM; in data set [2] it was 0.84 nM.
As for `Nc1ccncc1` [4-aminopyridine], the “block of the hKv1.5 current” value on cloned hKv1.5 is on record as “about 80%”.
Consider `CC[C@H](C)[C@@H]1NC(=O)[C@@H](NC(=O)[C@H](CO)NC(=O)[C@@H](N)CCCNC(=N)N)CSSC[C@@H](C(=O)O)NC(=O)[C@H]([C@@H](C)O)NC(=O)CNC(=O)[C@@H]2CSSC[C@@H]3NC(=O)[C@H](CCC(N)=O)NC(=O)[C@H](Cc4ccccc4)NC(=O)[C@H](C)NC(=O)[C@H]([C@@H](C)O)NC(=O)[C@H](CSSC[C@H](NC(=O)[C@H](Cc4ccccc4)NC(=O)[C@H](CO)NC(=O)[C@H](CC(C)C)NC(=O)[C@H](CCCNC(=N)N)NC(=O)[C@H](Cc4ccc(O)cc4)NC(=O)[C@H](CCCCN)NC(=O)[C@H](CCSC)NC(=O)[C@H](CO)NC(=O)[C@H](Cc4cnc[nH]4)NC(=O)[C@H](CCCCN)NC3=O)C(=O)N[C@@H](CCCNC(=N)N)C(=O)N[C@@H](CCCCN)C(=O)N[C@@H]([C@@H](C)O)C(=O)N2)NC(=O)[C@H](CCCNC(=N)N)NC(=O)[C@H](CO)NC(=O)[C@H](CCCCN)NC(=O)[C@@H]2CCCN2C(=O)[C@H]([C@@H](C)CC)NC(=O)[C@H]([C@@H](C)O)NC(=O)[C@H](CC(=O)O)NC1=O` [ShK(1-35), ShK], for which the half-life in data set [3] was 20 to 30 min.
As to `O=C(NCC1CCCCN1)c1cc(OCC(F)(F)F)ccc1OCC(F)(F)F` (stereo not drawn) [flecamide], the “inhibition of the hKv4.3 current” value on cloned hKv4.3 is given as “about 75%”.
As to “Bivalent Fc-L10-ShK[1-35] homodimer: IgG1 Fc-L10-ShK(1-35) peptibody homodimer, Example 1 of WO2008/088422A2 (GGGGSGGGGSRSCIDTIPKSRCTAFQCKHSMKYRLSFCRKTCGTC; not fully specified (N-terminus); ends and bridges not checked; also: homodimer via Fc) [reference compound]”, the concentration for half-maximal inhibition (IC50) in data set [1] is 0.386 nM; in data set [2], 0.32 nM. In addition, the “greater Kv1.3 activity compared to the bivalent Fc-L10-ShK(2-35) molecule” value with human Kv1.3 (whole cell patch clamp electrophysiology) was “about 8 fold”.
In the case of “Bivalent Fc-L10-ShK[2-35] homodimer: IgG1 Fc-L10-ShK(2-35) peptibody homodimer, Example 2 of WO2008/088422A2 (GGGGSGGGGSSCIDTIPKSRCTAFQCKHSMKYRLSFCRKTCGTC; not fully specified (N-terminus); ends and bridges not checked; also: homodimer via Fc) [reference compound]”, the values for the IC50 in data set [1] and in data set [2] were 0.585 nM and 2.29 nM, respectively. Also, the “Potency Relative to ShK (WB, IL2)” value in data set [1] (ratio of WB IL-2 IC50 to that of ShK(1-35)) was found to be 8.73. For the same molecule, in the data set with human Kv1.3 (IC50 values from whole cell patch clamp), the “Kv1.1/Kv1.3 Selectivity Ratio (of asterisked IC50 values)” value was found to be 3.54.

B1: 3B1-G2: recombinant IgG2 form of anti-DNP antibody 3B1 (protein)
light: DIQMTQSPSSLSASEGDRVTITCRASQGIRNDLGWYQQKPGKAPKRLIYAASSLQSGVPLRFSGSGSGTEFTLTISSLQPEDFATYYCLQYNSYPWTFGQGTKVEIKRTVAAPSVFIFPPSDEQLKSGTASVVCLLNNFYPREAKVQWKVDNALQSGNSQESVTEQDSKDSTYSLSSTLTLSKADYEKHKVYACEVTHQGLSSPVTKSFNRGEC
heavy: QVQLQESGPGLVKPSETLSLTCTVSGGSISSYYWSWIRQPPGKGLEWIGYIYYSGNTNSNPSLKSRVTISVDTSKNQFSLKLSSVTAADTAVYYCARTYYDSSGYYYRAFDIWGQGTMVTVSSASTKGPSVFPLAPCSRSTSESTAALGCLVKDYFPEPVTVSWNSGALTSGVHTFPAVLQSSGLYSLSSVVTVPSSNFGTQTYTCNVDHKPSNTKVDKTVERKCCVECPPCPAPPVAGPSVFLFPPKPKDTLMISRTPEVTCVVVDVSHEDPEVQFNWYVDGVEVHNAKTKPREEQFNSTFRVVSVLTVVHQDWLNGKEYKCKVSNKGLPAPIEKTISKTKGQPREPQVYTLPPSREEMTKNQVSLTCLVKGFYPSDIAVEWESNGQPENNYKTTPPMLDSDGSFFLYSKLTVDKSRWQQGNVFSCSVMHEALHNHYTQKSLSLSPGK
B1: the Kd with DNP(31)-BSA was determined as 0.7 nM. Besides, in the data set with DNP(31)-BSA (ne(y) = n × 10^(y)), the “ka, Binding to DNP(31)-BSA” value was determined as 420000 M⁻¹ s⁻¹ and the “kd, Binding to DNP(31)-BSA” value came out at 0.00031 s⁻¹.

The IC50 is the point on the concentration scale where inhibition reaches its midpoint. As usually defined, the half-life is the time needed for the level to fall by half in the phase considered.
